Data reported in patent publication US9487570B2, “Glucagon like peptide analogs, composition, and method of use” (BETTA PHARMACEUTICALS CO., LTD, priority 2010, dated 2016).
pEC50: −log10 of the molar value.

What was measured:
[1] = from U.S. Pat. No. 5,118,666; cited from earlier work
[2] = system: cloned human GLP-1 receptor; assay: cAMP formation in a cell line expressing the cloned human GLP-1 receptor; settings: 2 h at 37 °C, cAMP by scintillation proximity assay; read-out: Cell based cAMP ED50
[3] = biological target: DPP-IV (Homo sapiens, UniProt P27487); assay: Stability to DPP-IV in vitro; settings: isolated DPP-IV enzyme, pH 7.4
Chain of DPP-IV (P27487 whole entry, species assumed): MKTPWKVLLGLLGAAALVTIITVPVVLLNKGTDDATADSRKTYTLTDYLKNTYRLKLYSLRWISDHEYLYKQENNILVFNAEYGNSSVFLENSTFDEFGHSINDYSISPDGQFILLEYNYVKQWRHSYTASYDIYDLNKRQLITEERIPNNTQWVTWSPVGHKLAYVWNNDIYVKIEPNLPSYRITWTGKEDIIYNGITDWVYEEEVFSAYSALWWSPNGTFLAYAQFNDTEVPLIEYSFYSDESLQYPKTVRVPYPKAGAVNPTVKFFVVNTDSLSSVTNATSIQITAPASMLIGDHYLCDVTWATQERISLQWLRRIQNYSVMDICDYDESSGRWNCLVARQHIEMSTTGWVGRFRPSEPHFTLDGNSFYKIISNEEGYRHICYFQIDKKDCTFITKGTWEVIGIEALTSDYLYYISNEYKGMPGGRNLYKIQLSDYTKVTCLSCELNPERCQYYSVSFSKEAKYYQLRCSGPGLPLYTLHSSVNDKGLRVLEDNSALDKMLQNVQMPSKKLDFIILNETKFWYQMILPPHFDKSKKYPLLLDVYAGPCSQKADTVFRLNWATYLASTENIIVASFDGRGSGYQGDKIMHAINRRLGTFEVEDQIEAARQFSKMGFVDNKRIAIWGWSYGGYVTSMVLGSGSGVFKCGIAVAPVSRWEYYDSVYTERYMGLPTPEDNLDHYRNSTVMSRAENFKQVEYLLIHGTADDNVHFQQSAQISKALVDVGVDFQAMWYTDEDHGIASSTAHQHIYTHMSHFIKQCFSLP
Experimental: DPP-IV (5 mU, 900 μL) was added, and the solutions were incubated at 37 ° C. At the indicated time points, 100 μL was removed from the reaction mixture, and reactions were terminated by the addition of 5 μL of 10% (v/v) TFA. Each sample was analyzed by MALDI-TOF MS and RP-HPLC as described.

In the case of GLP-1(7-37)OH, the biological half-life [1] is listed as 3 to 5 minutes.

`CC[C@H](C)[C@H](NC(=O)[C@H](Cc1ccccc1)NC(=O)[C@H](CCC(=O)O)NC(=O)[C@H](CCCCN)NC(=O)[C@H](C)NC(=O)[C@H](C)NC(=O)[C@H](CCC(N)=O)NC(=O)CNC(=O)[C@H](CCC(=O)O)NC(=O)[C@H](CC(C)C)NC(=O)[C@H](Cc1ccc(O)cc1)NC(=O)[C@H](CO)NC(=O)[C@H](CO)NC(=O)[C@@H](NC(=O)[C@H](CC(=O)O)NC(=O)[C@H](CO)NC(=O)[C@@H](NC(=O)[C@H](Cc1ccccc1)NC(=O)[C@@H](NC(=O)CNC(=O)[C@H](CCC(=O)O)NC(=O)[C@H](C)NC(=O)[C@@H](N)Cc1c[nH]cn1)[C@@H](C)O)[C@@H](C)O)C(C)C)C(=O)N[C@@H](C)C(=O)N[C@@H](Cc1c[nH]c2ccccc12)C(=O)N[C@@H](CC(C)C)C(=O)N[C@H](C(=O)N[C@@H](CCCCN)C(=O)NCC(=O)N[C@@H](CCCNC(=N)N)C(N)=O)C(C)C` [GLP-1, reference compound] gave a pEC50 [2] of 10.22.

With `CCCCCCCCCCCCCCCC(=O)N[C@@H](CCC(=O)NCCCC[C@H](NC(=O)[C@H](C)NC(=O)[C@H](C)NC(=O)[C@H](CCC(N)=O)NC(=O)CNC(=O)[C@H](CCC(=O)O)NC(=O)[C@H](CC(C)C)NC(=O)[C@H](Cc1ccc(O)cc1)NC(=O)[C@H](CO)NC(=O)[C@H](CO)NC(=O)[C@@H](NC(=O)[C@H](CC(=O)O)NC(=O)[C@H](CO)NC(=O)[C@@H](NC(=O)[C@H](Cc1ccccc1)NC(=O)[C@@H](NC(=O)CNC(=O)[C@H](CCC(=O)O)N[C@@H]([C@H](C)NC(=O)[C@@H](N)Cc1c[nH]cn1)C(F)(F)F)[C@@H](C)O)[C@@H](C)O)C(C)C)C(=O)N[C@@H](CCC(=O)O)C(=O)N[C@@H](Cc1ccccc1)C(=O)N[C@H](C(=O)N[C@@H](C)C(=O)N[C@@H](Cc1c[nH]c2ccccc12)C(=O)N[C@@H](CC(C)C)C(=O)N[C@H](C(=O)N[C@@H](CCCNC(=N)N)C(=O)NCC(=O)N[C@@H](CCCNC(=N)N)C(=O)NCC(=O)O)C(C)C)[C@@H](C)CC)C(=O)O` [N-ε^26-[γ-L-glutamyl(N-α-hexadecanoyl)]-[Q-linker-d8,Arg34]GLP-1-(7-37)-peptide] the remaining at 1 h, 0.5 nmol/L [3] was 98% and the remaining at 24 h, 0.5 nmol/L [3] was 98%.

With `CCCCCCCCCCCCCCCC(=O)N[C@@H](CCC(=O)NCCCC[C@H](NC(=O)[C@H](C)NC(=O)[C@H](C)NC(=O)[C@H](CCC(N)=O)NC(=O)CNC(=O)[C@H](CCC(=O)O)NC(=O)[C@H](CC(C)C)NC(=O)[C@H](Cc1ccc(O)cc1)NC(=O)[C@H](CO)NC(=O)[C@H](CO)NC(=O)[C@@H](NC(=O)[C@H](CC(=O)O)NC(=O)[C@H](CO)NC(=O)[C@@H](NC(=O)[C@H](Cc1ccccc1)NC(=O)[C@@H](NC(=O)CNC(=O)[C@@H](/C=C/[C@H](C)NC(=O)[C@@H](N)Cc1c[nH]cn1)CCC(=O)O)[C@@H](C)O)[C@@H](C)O)C(C)C)C(=O)N[C@@H](CCC(=O)O)C(=O)N[C@@H](Cc1ccccc1)C(=O)N[C@H](C(=O)N[C@@H](C)C(=O)N[C@@H](Cc1c[nH]c2ccccc12)C(=O)N[C@@H](CC(C)C)C(=O)N[C@H](C(=O)N[C@@H](CCCNC(=N)N)C(=O)NCC(=O)N[C@@H](CCCNC(=N)N)C(=O)NCC(=O)O)C(C)C)[C@@H](C)CC)C(=O)O` [N-ε^26-[γ-L-glutamyl(N-α-hexadecanoyl)]-[Q-linker-a8-9,Arg34]GLP-1-(7-37)-peptide] the remaining at 1 h, 0.5 nmol/L [3] was 98% and the remaining at 24 h, 0.5 nmol/L [3] was 98%.
